The test system of assay [1] is lumbar spine (L4-5) vertebral body of ovariectomized rats. Kind of assay: Suppression of bone mass decrease in ovariectomized rats (osteoporosis model rats). Format: in vivo, Female SD rats. The conditions noted are these: 12 weeks, Control 46.1 ± 0.5, Normal control 56.3 ± 1.4. How it is done: Experimental Example 2 suppression of bone mass decrease
The suppressive effect of the compound of the present invention on the bone mass decrease was tested using the ovariectomized rats (osteoporosis model rats).
Female SD rats (13 weeks of age) were subjected to bilateral ovariectomies under anesthesia with Nembutal (50 mg/kg/ml, i.p.; Dai-Nippon Pharmaceutical). At the same time, a sham control group that was subjected to sham surgery without removing ovaries was prepared. The next day of the operation, the rats were grouped in such a manner that the bone mineral density (hereinafter abbreviated as BMD) of each group would reach an average. The BMD was determined by their bone mineral density of lumbar spine (L 4-5) that was measured with a DXA bone densitometer (DCS-600 R, Aloka) under ether anesthesia. The test compounds were suspended in 0.5% hydroxypropylmethylcellulose (hereinafter abbreviated as HPMC, Shin-Etsu Chemical Industries, Ltd.) and they were administered orally at the doses of 0.3, 1.0 and 3.0 mg/kg (5 ml/kg:) for 12 weeks daily from the day following the operation. As a positive control, 17 β-estradiol (Sigma) was dissolved in 5% benzyl alcohol and 95% corn oil, and administered subcutaneously at a dose of 50 μg/kg (1 ml/kg) twice a week for 12 weeks. 0.5% HPMC was administered orally to the normal control and the control for 12 weeks at 5 ml/kg. The next day of the final administration, the rats were exsanguinated and killed under ether anesthesia and the lumbar spine (L4-5) was recovered. The soft tissues and processes were removed from the obtained lumbar spine and BMD of the vertebral body (L4-5) was determined with DCS-600 R (Aloka).
The results are shown by mean±S.E. of the respective groups and the statistical evaluations of the effect of respective groups were made by one-way analysis of variance. The significance was ascribed at less than 5%.

The subject of assay [2] is calvaria. Put plainly: Inhibition of bone resorption (45Ca release from calvaria stimulated with hPTH (1-34), method of Raisz). Particulars: Mus musculus, 72 h; 45Ca release, 50 nM hPTH (1-34), 3 days incubation; test concentrations 0.04, 0.2 and 1 μM; mean of 4 pairs; read-out: IC50 (inhibition of bone resorption). It is filed as cell-based, new born ICR mouse.
Description: The determination of the inhibitory action on the bone resorption was basically in accordance with the method of Raisz [J. Clin. Invest. vol.
A new born ICR mouse (one or two days old) was intraperitoneally administered with 1.5μ Ci ^45 Ca (isotope of calcium as CaCl2 solution) and calvaria was aseptically removed the next day. The calvaria was split into two along the central suture line, and one of them was used as a control and the other was used as a test compound. The calvaria was preincubated at 37° C. for 2 days in BGJb medium [0.5 ml, Fitton-Jackson modification, GIBCO Laboratories, USA, containing bovine serum albumin 1 mg/ml] added with a test compound to the concentrations of 0.04 μM, 0.2 μM and 1 μM and then in the above-mentioned medium containing 50 nM hPTH (1-34) for further 3 days. After the incubation, the ^45 Ca radioactivity in the medium and the bone was determined, and the proportion (%) of ^45 Ca released from the bone into the medium was calculated by the following formula.
Using the bone obtained from the same mouse and treated in the same manner without adding a test compound, as a control, the proportion (%) relative to the control group was determined according to the following formula.
Setting [3] is: 0.3 mg/kg p.o., daily, n=9, mean ± S.E.
The mark [4] stands for this setting: 1 mg/kg p.o., daily, n=8, mean ± S.E., *p < 0.05.
Where [5] appears, read: 3 mg/kg p.o., daily, n=9, mean ± S.E., **p < 0.01.

Where a name gives a salt, the structure may show the parent alone.

One may read the IC50 as the concentration needed to halve the response being measured.

Turning to `C[C@]12CC[C@@H]3c4ccc(O)cc4CC[C@H]3[C@@H]1CC[C@@H]2O` [17 β-estradiol, reference compound], the “BMD of body of vertebra” value in assay [1] (positive control, 0.05 mg/kg s.c., twice a week, n=8, mean ± S.E.) is reported as 53.5 ± 0.7 mg/cm^2.

Turning to `Cc1nnc2n1-c1ccccc1C(c1ccc(Cl)cc1)=NN2Cc1cccnc1` [Example 54, 6-(4-Chlorophenyl)-1-methyl-4-(pyridin-3-ylmethyl)-4H-2,3,4,5,10b-pentaazabenz[e]azulene], the IC50 in assay [2] was determined as 540 nM. Further, the “BMD of body of vertebra” value in assay [1] (setting [3]) is listed as 46.2 ± 0.4 mg/cm^2; in assay [1] (setting [4]), 47.3 ± 0.6 mg/cm^2; in assay [1] (setting [5]), 51.6 ± 0.4 mg/cm^2.

As for `Cc1ccc2c(c1)-n1c(C)nnc1N(Cc1ccncc1)N=C2c1ccccc1` [Example 131, 1,9-Dimethyl-6-phenyl-4-(pyridin-4-ylmethyl)-4H-2,3,4,5,10b-pentaazabenz[e]azulene], in assay [2], the IC50 was determined as 990 nM. Besides, the entries for the “BMD of body of vertebra” value in assay [1] (setting [3]), in assay [1] (setting [4]) and in assay [1] (setting [5]) were 46.5 ± 0.8 mg/cm^2, 48.5 ± 0.5 mg/cm^2 and 51.3 ± 0.9 mg/cm^2, respectively.

`Cc1sc2c(c1C)C(c1ccc(Cl)cc1)=NN(Cc1cccnc1)c1nnc(C)n1-2` [Example 139, 4-(4-Chlorophenyl)-2,3,9-trimethyl-6-(pyridin-3-ylmethyl)-6H-5,6,7,8,9a-pentaazathien[2,3-e]azulene]: in assay [2], the IC50 stood at 18 nM.

`Cc1sc2c(c1C)C(c1ccc(Cl)cc1)=NN(Cc1ccncc1)c1nnc(C)n1-2` [Example 140, 4-(4-Chlorophenyl)-2,3,9-trimethyl-6-(pyridin-4-ylmethyl)-6H-5,6,7,8,9a-pentaazathien[2,3-e]azulene]: the IC50 in assay [2] is 50 nM.

Regarding `CCc1cc2c(s1)-n1c(C)nnc1N(Cc1cccnc1)N=C2c1ccc(Cl)cc1` [Example 141, 4-(4-Chlorophenyl)-2-ethyl-9-methyl-6-(pyridin-3-ylmethyl)-6H-5,6,7,8,9a-pentaazathien[2,3-e]azulene], the IC50 in assay [2] stood at 680 nM.

Turning to `CCc1cc2c(s1)-n1c(C)nnc1N(Cc1ccncc1)N=C2c1ccc(Cl)cc1` [Example 142, 4-(4-Chlorophenyl)-2-ethyl-9-methyl-6-(pyridin-4-ylmethyl)-6H-5,6,7,8,9a-pentaazathien[2,3-e]azulene], in assay [2], the IC50 came to 450 nM.

Regarding `Cc1cc2c(s1)-n1c(C)nnc1N(Cc1cccnc1)N=C2c1ccccc1` [Example 143, 2,9-Dimethyl-4-phenyl-6-(pyridin-3-ylmethyl)-6H-5,6,7,8,9a-pentaazathien[2,3-e]azulene], the IC50 in assay [2] is 340 nM.

As to `Cc1cc2c(s1)-n1c(C)nnc1N(Cc1ccncc1)N=C2c1ccccc1` [Example 144, 2,9-Dimethyl-4-phenyl-6-(pyridin-4-ylmethyl)-6H-5,6,7,8,9a-pentaazathien[2,3-e]azulene], the IC50 in assay [2] is 270 nM.

Turning to `Cc1sc2c(c1C)C(c1ccccc1)=NN(Cc1cccnc1)c1nnc(C)n1-2` [Example 145, 2,3,9-Trimethyl-4-phenyl-6-(pyridin-3-ylmethyl)-6H-5,6,7,8,9a-pentaazathien[2,3-e]azulene], the half-inhibitory concentration (IC50) in assay [2] stood at 120 nM.

Turning to `Cc1sc2c(c1C)C(c1ccccc1)=NN(Cc1ccncc1)c1nnc(C)n1-2` [Example 146, 2,3,9-Trimethyl-4-phenyl-6-(pyridin-4-ylmethyl)-6H-5,6,7,8,9a-pentaazathien[2,3-e]azulene], the IC50 in assay [2] is 100 nM.

In the case of `CCc1cc2c(s1)-n1c(C)nnc1N(Cc1cccnc1)N=C2c1ccccc1` [Example 147, 2-Ethyl-9-methyl-4-phenyl-6-(pyridin-3-ylmethyl)-6H-5,6,7,8,9a-pentaazathien[2,3-e]azulene], the IC50 in assay [2] came out at 810 nM.

As for `CCc1cc2c(s1)-n1c(C)nnc1N(Cc1ccncc1)N=C2c1ccccc1` [Example 148, 2-Ethyl-9-methyl-4-phenyl-6-(pyridin-4-ylmethyl)-6H-5,6,7,8,9a-pentaazathien[2,3-e]azulene], in assay [2], the IC50 came out at 680 nM.

On to `COc1ccc(C2=NN(Cc3cccnc3)c3nnc(C)n3-c3sc(C)c(C)c32)cc1` [Example 149, 4-(4-Methoxyphenyl)-2,3,9-trimethyl-6-(pyridin-3-ylmethyl)-6H-5,6,7,8,9a-pentaazathien[2,3-e]azulene], for which the half-inhibitory concentration (IC50) in assay [2] was 180 nM.

For the compound `COc1ccc(C2=NN(Cc3ccncc3)c3nnc(C)n3-c3sc(C)c(C)c32)cc1` [Example 150, 4-(4-Methoxyphenyl)-2,3,9-trimethyl-6-(pyridin-4-ylmethyl)-6H-5,6,7,8,9a-pentaazathien[2,3-e]azulene], the IC50 in assay [2] is 29 nM.

As to `Cc1nnc2n1-c1ccccc1C(c1ccc(Cl)cc1)=NN2Cc1ccc(O)cc1` [Example 184, 6-(4-Chlorophenyl)-4-(4-hydroxybenzyl)-1-methyl-4H-2,3,4,5,10b-pentaazabenz[e]azulene], in assay [2], the IC50 came out at 560 nM.

`CCOc1ccc(CN2N=C(c3ccc(Cl)cc3)c3ccccc3-n3c(C)nnc32)cc1` [Example 186, 6-(4-Chlorophenyl)-4-(4-ethoxybenzyl)-1-methyl-4H-2,3,4,5,10b-pentaazabenz[e]azulene]: the IC50 in assay [2] turned out to be 790 nM.

In the case of `CC(=O)Nc1ccc(CN2N=C(c3ccc(Cl)cc3)c3ccccc3-n3c(C)nnc32)cc1` [Example 189, 4-(4-Acetylaminobenzyl)-6-(4-chlorophenyl)-1-methyl-4H-2,3,4,5,10b-pentaazabenz[e]azulene], the IC50 in assay [2] came out at 260 nM.

In the case of `Cc1nnc2n1-c1ccccc1C(c1ccc(Cl)cc1)=NN2Cc1ccc(N(C)C)cc1` [Example 191, 6-(4-Chlorophenyl)-4-(4-dimethylaminobenzyl)-1-methyl-4H-2,3,4,5,10b-pentaazabenz[e]azulene hydrochloride], in assay [2], the IC50 is 740 nM.

The values are drawn from patent US5807850A, “Therapeutic agent for osteoporosis and triazepine compound” (Japan Tobacco, Inc., priority 1994, dated 1998).
